Experimental data: ChEMBL document CHEMBL1201862, “PubChem BioAssay data set” (2004)
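48-hour exposure; five concentrations; linearly interpolated endpoints. Abbreviation: GI50, concentration required for 50% inhibition of growth.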 Activity calls are given as the source filed them. Cut-off read from the data, not from the text of the source: active = GI50 up to about 1.1 µM and inactive = higher.

Legend:
Assay in all cases: NCI tumour cell line growth inhibition, 48 h
SW-620 = system: SW-620
PC-3 = system: PC-3
HCC 2998 = system: HCC 2998
UACC-257 = system: UACC-257
OVCAR-8 = system: OVCAR-8
SK-MEL-5 = system: SK-MEL-5
SNB-19 = system: SNB-19
RXF 393 = system: RXF 393
T47D = system: T47D
A549 = system: A549
CAKI-1 = system: CAKI-1
HT-29 = system: HT-29
HCT-116 = system: HCT-116
M14 = system: M14
MOLT-4 = system: MOLT-4
EKVX = system: EKVX
NCI-H460 = system: NCI-H460
ACHN = system: ACHN
Hs-578T = system: Hs-578T

Measured: GI50

COc1cc(C2c3cc4c(cc3OC(NN)C2C)OCO4)cc(OC)c1O (stereo unspecified)
inactive: SW-620 4.73 µM | PC-3 10.4 µM | HCC 2998 12.4 µM | UACC-257 18.5 µM | OVCAR-8 16.5 µM | SK-MEL-5 4.13 µM | SNB-19 32.5 µM | RXF 393 15.3 µM | T47D 7.28 µM | A549 8.2 µM | CAKI-1 10.4 µM | HT-29 6.22 µM | HCT-116 4.63 µM | M14 10.4 µM

Fc1cccc(F)c1C1SCc2nc3cc4ccccc4cc3n21 (stereo unspecified)
inactive: SW-620 49 µM | MOLT-4 15.3 µM | PC-3 23 µM | HCC 2998 23.9 µM | UACC-257 31.6 µM | OVCAR-8 58.6 µM | SK-MEL-5 21.8 µM | EKVX 54.6 µM | RXF 393 28.4 µM | T47D 23 µM | A549 33.3 µM | CAKI-1 88.1 µM | HT-29 20.2 µM | HCT-116 47 µM | M14 29.7 µM

O=C(CCC1CCCCC1)NCc1ccc(C(=O)O)cc1
inactive: SW-620 > 100 µM | MOLT-4 > 100 µM | PC-3 > 100 µM | HCC 2998 > 100 µM | UACC-257 > 100 µM | OVCAR-8 > 100 µM | NCI-H460 > 100 µM | SK-MEL-5 > 100 µM | EKVX 56.9 µM | SNB-19 > 100 µM | RXF 393 > 100 µM | T47D > 100 µM | A549 > 100 µM | CAKI-1 > 100 µM | HT-29 > 100 µM | HCT-116 > 100 µM | ACHN > 100 µM | M14 > 100 µM

COc1cc(C2C3=C(CCCC3=O)N(c3ccc(C)cc3)C3=C2C(=O)CCC3)c([N+](=O)[O-])cc1OC
inactive: SW-620 > 100 µM | MOLT-4 24.2 µM | PC-3 > 100 µM | HCC 2998 > 100 µM | NCI-H460 > 100 µM | Hs-578T 75.9 µM | SK-MEL-5 64.6 µM | EKVX > 100 µM | SNB-19 > 100 µM | RXF 393 30 µM | A549 54.5 µM | CAKI-1 > 100 µM | HT-29 59.4 µM | ACHN 65.3 µM | M14 > 100 µM

OCC(O)COCn1cc(Cn2ncc3c(O)ncnc32)nn1 (stereo unspecified)
inactive: SW-620 > 100 µM | MOLT-4 > 100 µM | PC-3 > 100 µM | HCC 2998 > 100 µM | UACC-257 > 100 µM | OVCAR-8 > 100 µM | SK-MEL-5 > 100 µM | EKVX > 100 µM | SNB-19 > 100 µM | T47D > 100 µM | A549 > 100 µM | CAKI-1 > 100 µM | HT-29 > 100 µM | HCT-116 > 100 µM | ACHN > 100 µM | M14 > 100 µM

COc1c(O)cc2c(c1O)C1O[C@H](CO)C(O)[C@H](O)[C@H]1OC2=O (stereo partly specified)
inactive: SW-620 > 100 µM | MOLT-4 > 100 µM | PC-3 > 100 µM | HCC 2998 > 100 µM | UACC-257 > 100 µM | OVCAR-8 > 100 µM | NCI-H460 > 100 µM | SK-MEL-5 > 100 µM | SNB-19 > 100 µM | RXF 393 > 100 µM | T47D > 100 µM | A549 > 100 µM | CAKI-1 > 100 µM | HT-29 > 100 µM | HCT-116 > 100 µM | ACHN > 100 µM | M14 > 100 µM

COC(=O)c1c(O)ccc2c1c1c(n2Cc2ccccn2)C(=O)c2ccccc2C1
inactive: SW-620 > 100 µM | MOLT-4 95.1 µM | PC-3 16.5 µM | UACC-257 82.8 µM | OVCAR-8 > 100 µM | NCI-H460 50.2 µM | Hs-578T > 100 µM | SK-MEL-5 > 100 µM | SNB-19 > 100 µM | RXF 393 31.6 µM | A549 66.1 µM | CAKI-1 19.1 µM | HT-29 32.8 µM | HCT-116 50 µM | M14 > 100 µM

C/C(=C\Cc1cc(O)ccc1O)CCc1c(C)cc(O)c(C=O)c1C [PANICEIN B3]
inactive: SW-620 45.9 µM | MOLT-4 > 100 µM | HCC 2998 43.2 µM | OVCAR-8 17.1 µM | NCI-H460 24.3 µM | SK-MEL-5 17.4 µM | EKVX 31.1 µM | SNB-19 44.5 µM | RXF 393 15.9 µM | A549 27.4 µM | CAKI-1 22.4 µM | HT-29 20.4 µM | HCT-116 19.3 µM | ACHN 17.5 µM | M14 23.5 µM

CC1(C)CC(N2CCN(C3CC(C)(C)NC(C)(C)C3)CC2)CC(C)(C)N1
inactive: SW-620 > 100 µM | MOLT-4 > 100 µM | HCC 2998 > 100 µM | UACC-257 > 100 µM | OVCAR-8 > 100 µM | NCI-H460 > 100 µM | SK-MEL-5 > 100 µM | EKVX > 100 µM | SNB-19 > 100 µM | RXF 393 > 100 µM | A549 > 100 µM | CAKI-1 > 100 µM | HT-29 > 100 µM | HCT-116 > 100 µM | ACHN > 100 µM | M14 > 100 µM
